Patent US12570604B2, “Polymorphic forms of a tetracycline compound and uses thereof” (Tetraphase Pharmaceuticals, Inc., priority 2018, dated 2026)

Tests used:
[1] = Dynamic vapor sorption (DVS) of crystalline Forms A and B; assay type: physicochemical; conditions: 25° C., adsorption range 0% to 95% RH
Method: (§1) The crystalline forms provided can be additionally characterized by dynamic vapor sorption (DVS), wherein a sample is subjected to varying conditions of humidity and temperature, and the response of the sample is measured gravimetrically. The result of a DVS analysis particularly can be a dual curve providing sample weight percent as a function of relative humidity (RH) over time, a dual curve providing sample water content as a function of RH over time, a curve providing weight percent in relation to RH, or a curve providing water content in relation to RH. Equipment useful for measuring such data is known in the art, and any such equipment can be used to measure the compounds according to the present invention. In certain embodiments, DVS analysis can be carried out by scanning at a series of specific RH values. Thus, specific polymorphs according to the invention may be identified and described in relation to the representative graph and/or the approximate peaks obtained in DVS analysis, particularly scanning from 0% to 95% RH with a step interval of 5% or 10% RH.
DVS pattern for the crystalline Forms A and B was generated at 25° C. using a DVS Moisture Balance Flow System (Model Advantage) with the following conditions: sample size approximately 10 to 20 mg, drying at 25° C. for 60 minutes, adsorption range 0% to 95% RH, desorption range 95% to 0% RH, and step interval 5% RH. […]

[2] = Dynamic vapor sorption (DVS) of crystalline Forms C and D; assay type: physicochemical; conditions: for DVS rapid weight gain: in the range of 25-35% RH; for DVS low weight gain: in the range of 35-75% RH
Method: as §1
DVS data for the crystalline Forms C and D were collected on a Surface Measurement System DVS Intrinsic instrument. Samples were not dried prior to analysis. Sorption and desorption data were collected over a range from 5% to 95% RH at 10% RH increments under a nitrogen purge. The equilibrium criterion used for analysis was less than 0.0100% weight change in 5 minutes with a maximum equilibration time of 3 hours. Data were not corrected for the initial moisture content of the samples.

Row | DVS weight gain ([1]; at 75% RH) | DVS weight gain ([1]; at 95% RH) | DVS weight gain ([2]; in the range of 5-25% RH) | DVS rapid weight gain [2] | DVS weight gain ([2]; in the range of 35-45% RH) | DVS low weight gain [2] | DVS total weight gain ([2]; between 5 and 95% RH) | SMILES
1 | about 19% | about 40% |  |  |  |  |  | CN(C)[C@@H]1C(O)=C(C(N)=O)C(=O)[C@@]2(O)C(O)=C3C(=O)c4c(O)c(NC(=O)[C@@H]5CCCN5C)cc(F)c4C[C@H]3C[C@@H]12 [Form A, (S)—N-((5aR,6aS,7S,10aS)-9-carbamoyl-7-(dimethylamino)-4-fluoro-1,8,10a,11-tetrahydroxy-10,12-dioxo-5,5a,6,6a,7,10,10a,12-octahydrotetracen-2-yl)-1-methylpyrrolidine-2-carboxamide]
2 |  |  | about 2.7% | about 10% | about 6.1% | about 3.7% |  | CN(C)[C@@H]1C(O)=C(C(N)=O)C(=O)[C@@]2(O)C(O)=C3C(=O)c4c(O)c(NC(=O)[C@@H]5CCCN5C)cc(F)c4C[C@H]3C[C@@H]12 [Form C, (S)—N-((5aR,6aS,7S,10aS)-9-carbamoyl-7-(dimethylamino)-4-fluoro-1,8,10a,11-tetrahydroxy-10,12-dioxo-5,5a,6,6a,7,10,10a,12-octahydrotetracen-2-yl)-1-methylpyrrolidine-2-carboxamide]
3 |  |  | about 2.7% | about 10% |  | about 3.7% | about 39.2% | CN(C)[C@@H]1C(O)=C(C(N)=O)C(=O)[C@@]2(O)C(O)=C3C(=O)c4c(O)c(NC(=O)[C@@H]5CCCN5C)cc(F)c4C[C@H]3C[C@@H]12 [Form D, (S)—N-((5aR,6aS,7S,10aS)-9-carbamoyl-7-(dimethylamino)-4-fluoro-1,8,10a,11-tetrahydroxy-10,12-dioxo-5,5a,6,6a,7,10,10a,12-octahydrotetracen-2-yl)-1-methylpyrrolidine-2-carboxamide]
